# Test results as given in patent US9663486B2, “Selectively substituted quinoline compounds” (EISAI R&D MANAGEMENT CO., LTD., priority 2013, dated 2017).
# Entries after “also recorded” stand apart in the source; their conditions may differ.
# Test system: auto-antibody titers (anti-dsDNA, anti-histone, anti-Sm/RNP, anti-RiboP)
# Assay: DBA/1 pristane lupus model, auto-antibody titers by ELISA
# Type: in vivo, mouse
# Details: DBA/1 mice, once-a-day oral dosing
# Description: FIG. 1A through FIG. 1D show results of treatment with ER-888840 (5-((3R,5S)-3-amino-5-methylpiperidin-1-yl)quinoline-8-carbonitrile) in the DBA/1 pristane model. Figure Legend: Female DBA/1 mice at 10 weeks of age were given an intraperitoneal injection of 0.5 ml pristane or PBS. At 18 weeks of age animals were bled for pre-dosing baseline auto-antibody titers. Once-a-day oral dosing with Vehicle (Veh; 0.5% methyl-cellulose) or 11 mg/kg, 33 mg/kg, or 100 mg/kg of ER-888840 was begun at 18 weeks of age, 8 weeks after pristane injection and continued for 12 weeks of treatment. At the end of the experiment plasma samples were taken and anti-dsDNA and anti-histone (FIG. 1A) and anti-Sm/RNP and anti-RiboP (FIG. 1B) titers were determined by ELISA. (FIG. 1C) The expression of IFN-regulated genes in whole blood was measured by a qPCR panel after 8 weeks of treatment. […] (FIG. 1D) The interferon scores of individual mice were calculated (see Pharmacology Materials and Methods section for details regarding IFN score calculation) and groups compared using the Mann-Whitney t test.
# FIG. 2A through 2E show results of treatment with ER-888840 in the DBA/1 pristane model. […] At the end of the experiment plasma was taken and anti-dsDNA (FIG. 2A), anti-RiboP (FIG. 2B), anti-histone (FIG. 2C) and anti-Sm/RNP (FIG. 2D) titers were determined by ELISA. […]
compound,measurement,value
"C[C@H]1C[C@@H](N)CN(c2ccc(C#N)c3ncccc23)C1 [ER-888840, 5-((3R,5S)-3-amino-5-methylpiperidin-1-yl)quinoline-8-carbonitrile]",effect on auto-antibody specificities,suppressed multiple auto-antibody specificities; also recorded: limited the production of several autoantibody specificities
